From publication PMC12200682 (PLOS One, 2025) come the findings set out here.

As usually defined, the chromatographic logD is a lipophilicity value derived from retention on a column. Lower therefore signals lower lipophilicity. As usually defined, the Papp is a coefficient for how fast a substance crosses the barrier. Read a low Papp as poor permeation. In general, IC50 refers to the concentration at which inhibition is half-maximal. The term AUC(0-t) denotes the area under the concentration-time curve up to a stated or last time point. As usually defined, the Cmax is the highest concentration seen after dosing. For orientation: Vd means the apparent volume that relates the amount in the body to the concentration in plasma or blood. A lower Vd goes with confinement near the circulation. One may read the clearance as a measure of how efficiently the substance is removed, as volume per time. A word on the half-life: it is the time needed for the level to fall by half in the phase considered.

A short description of data set [1]: Lipophilicity assay (chromatographic LogD). Format: physicochemical. The conditions noted are these: pH 7.4. As to the method: Distribution coefficient (LogD, pH 7.4) was obtained by a high-throughput alternative method. Each compound was dissolved in DMSO at 10 mM. After centrifugation, the solution was measured by reversed-phase HPLC on a C18 column (50 × 4.6 mm, […] Gemini C18, Phenomenex) at pH 7.4, using fast gradient acetonitrile-aqueous buffer mobile phases. The lipophilicity was estimated from a calibration curve using six reference compounds by plotting their respectively measured retention time versus LogD in literature. The chromatographic LogD values were derived directly from the gradient retention time by using this calibration curve.

The nature of data set [2]: Parallel artificial membrane permeability (PAMPA) assay. The format is in vitro ADME. As to the method: PAMPA assay was outsourced to Wuxi Apptech Co. Ltd. Briefly, donor plate, acceptor plate and receiver plate formed a sandwich and 200 µL of 5.0 µM donor solutions were added. The concentrations of compounds in both plates were measured by a LC-MS/MS system after 30 minutes. The permeability coefficient (Peff, nm/s) values at pH 5 and 7.4 were calculated.
(The PAMPA barrier holds no transporters, so it reflects passive diffusion.)

Another data set concerns the target T1, human topoisomerase I (Homo sapiens, UniProt P11387).
T1 construct: purchased Inspiralis
T1 sequence (P11387 1-765): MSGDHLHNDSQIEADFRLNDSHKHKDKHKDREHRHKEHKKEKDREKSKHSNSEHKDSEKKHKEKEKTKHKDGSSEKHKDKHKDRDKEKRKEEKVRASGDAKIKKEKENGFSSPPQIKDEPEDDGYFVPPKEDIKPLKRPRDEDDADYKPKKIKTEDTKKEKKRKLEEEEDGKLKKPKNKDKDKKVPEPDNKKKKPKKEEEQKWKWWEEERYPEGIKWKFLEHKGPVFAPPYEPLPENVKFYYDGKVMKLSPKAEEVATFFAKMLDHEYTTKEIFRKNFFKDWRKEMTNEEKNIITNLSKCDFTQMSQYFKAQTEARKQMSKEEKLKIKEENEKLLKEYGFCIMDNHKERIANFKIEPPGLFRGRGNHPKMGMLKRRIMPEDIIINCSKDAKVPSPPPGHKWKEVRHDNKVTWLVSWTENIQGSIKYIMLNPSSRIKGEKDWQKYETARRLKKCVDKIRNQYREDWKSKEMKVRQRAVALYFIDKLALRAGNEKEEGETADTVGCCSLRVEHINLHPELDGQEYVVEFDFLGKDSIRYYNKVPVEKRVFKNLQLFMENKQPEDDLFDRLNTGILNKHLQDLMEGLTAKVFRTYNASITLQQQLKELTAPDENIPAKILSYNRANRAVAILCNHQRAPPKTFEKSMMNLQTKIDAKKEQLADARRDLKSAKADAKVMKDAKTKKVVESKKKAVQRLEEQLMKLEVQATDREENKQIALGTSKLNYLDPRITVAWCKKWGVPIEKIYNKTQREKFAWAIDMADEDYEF
Kind of data set: Topoisomerase I inhibition assay. Format: biochemical. The conditions noted are these: read-out: Top I inhibition (IC50). As to the method:
Topoisomerase I inhibition assay was outsourced to Wuxi Apptech Co. Ltd. Topoisomerase I activity was measured using human topoisomerase I microplate assay kit (Inspiralis), according to the manufacturer’s instructions.

Data set [3] can be described thus: Pharmacokinetics of payload in mice. More on the design: species or system C57BL/6 mice. The conditions noted are these: C57BL/6, mouse, in vivo, iv, 0.5 mg/kg. As to the method:
All animal experiments at Shanghai Hengrui were approved by Shanghai Hengrui’s Institutional Animal Care and Use Committee. Studies were performed in accordance with ARRIVE guidelines. C57BL/6 mice (15–18 g body weight, n = 18) were purchased from Beijing Vital River Laboratory Animal Technology Co., Ltd and were held as described in details of mouse xenograft section. Compounds were administered intravenously at 0.5 mg/kg. Blood samples were collected at various time points after dosing. Mice were monitored daily for health condition and humane endpoint criteria. There were no unexpected animal deaths or humane endpoint criteria reached during the study. All of the animals were euthanized by using inhaled carbon dioxide at the end of study. The compound concentrations were determined by SCIEX Triple Quad 7500 LC-MS/MS System (SCIEX).

Another data set relates to NCI-N87. Kind of data set: Cell viability assay, NCI-N87. The format is cell-based. The conditions noted are these: Homo sapiens, NCI-N87, 144 h, read-out: IC50 cytotoxicity. As to the method:
(§1) Cells were seeded into 96-well plates at 1500 cells/well for SK-BR-3, JIMT-1, and NCI-N87, 800 cells/well for HCC1954, 600 cells/well for AGS and MKN-45, 2500 cells/well for MDA-MB-468 and Capan-1, and 1000 cells/well for SNU-16. After overnight incubation, a serially diluted solution of compounds or ADCs was added. Cell viability was evaluated after 6 days using CellTiter-Glo reagent (Promega) according to the manufacturer’s instructions. Luminescence was measured by PHERAstar (BMG LABTECH).

The test system of another data set is SK-BR-3. The experiment in a line: Cell viability assay, SK-BR-3. The format is cell-based. The conditions noted are these: Homo sapiens, SK-BR-3, 144 h, read-out: IC50 cytotoxicity. On the procedure:
as §1

In a further data set the test system is HCC1954. Kind of data set: Cell viability assay, HCC1954. The conditions noted are these: Homo sapiens, HCC1954, 144 h, read-out: IC50 cytotoxicity. The format is cell-based. As to the method:
as §1

The subject of a further data set is JIMT-1. Kind of data set: Cell viability assay, JIMT-1. The format is cell-based. The following applies: Homo sapiens, JIMT-1, 144 h, read-out: IC50 cytotoxicity. As to the method:
as §1

The next data set deals with Capan-1. The experiment in a line: Cell viability assay, Capan-1. The conditions noted are these: Homo sapiens, CAPAN-1, 144 h, read-out: IC50 cytotoxicity. Format: cell-based. As to the method: as §1
Another data set concerns AGS. The experiment in a line: Cell viability assay, AGS. The format is cell-based. The following applies: Homo sapiens, 144 h, read-out: IC50 cytotoxicity. On the procedure:
as §1

In the next data set the test system is MKN45. Kind of data set: Cell viability assay, MKN45. Format: cell-based. The conditions noted are these: Homo sapiens, MKN-45, 144 h, read-out: IC50 cytotoxicity. On the procedure:
as §1

The subject of the next data set is MDA-MB-468. The experiment in a line: Cell viability assay, MDA-MB-468. The following applies: Homo sapiens, MDA-MB-468, 144 h, read-out: IC50 cytotoxicity. The format is cell-based. As to the method: as §1
The subject of another data set is nine cancer cell lines. The experiment in a line: Cell viability assay, panel of nine cancer cell lines. The conditions noted are these: Homo sapiens; independent of HER2 expression levels; read-out: IC50 values across nine cancer cell lines. The format is cell-based. On the procedure: as §1
Data set [4] in a line: Toxicokinetics in cynomolgus monkeys. The format is in vivo. The conditions noted are these: for half-life: both sexes, cynomolgus monkey, in vivo, iv, 40 mg/kg. On the procedure: GLP toxicology and toxicokinetics studies were outsourced to Shanghai InnoStar Bio-tech Co., Ltd. Studies were approved by InnoStar’s Institutional Animal Care and Use Committee and carried out in compliance with ARRIVE guidelines. Cynomolgus monkeys were housed in stainless steel cages at the study institution. The temperature and relative humidity of the room were recorded twice a day with ranged from 18 to 26°C and 40–70%, respectively. Ventilation was constantly operated with ≥ 8 times of air changes per hour. […] Monkey maintenance feed was purchased from qualified supplier with microorganisms, heavy metals and pesticide residues tested. During the study, all animals had ad libitum access to feed and clean deionized water except during specific fasting. […] All animals were acclimated to temperature and relative humidity-controlled environment for few days before randomization. Detailed clinical observation was performed on all cynomolgus monkeys once a day during the acclimation period. All of the animal care staff were trained to maximal reduce the pain of animals. Special training such as animal handling, proper injection for treatment/anesthesia, and painless death were taught to the staff.
Clinical signs, body weight, food consumption, and clinical pathology were monitored twice a day. […] Humane endpoint criteria were observed twice a day during study to examine health and behavior. Animals were sacrificed in less than a day once reached endpoint criteria. There were no unexpected animal deaths during the studies with 16-weeks duration. All of the animals were euthanized by intravenous injection of combination of zoletil and xylazine at the end of study for targeted organ and tissue examinations to evaluate toxicity or when the following humane endpoints were reached: severe injury, severe respiratory depression, severe weight loss, persistent anorexia, significant pain or stress, progressive pain leading to weakness, and persistent or continuous twitching. Final disposal of each animal was recorded on the study records.

On to `CC[C@@]1(O)C(=O)OCc2c1cc1n(c2=O)Cc2c-1nc1cc(F)c(C)c3c1c2[C@@H](NC(=O)[C@H](O)C1CC1)CC3` [SHR169265], for which the chromatographic logD in [1] is 1.89. Moreover, the values for the apparent permeability coefficient (Papp) at 30 min, 5 µM in data set [2] (pH 5) and in [2] (pH 7.4) were 13.8 ×10⁻⁶ cm/s and 7.16 ×10⁻⁶ cm/s, respectively. Also, the IC50 at human topoisomerase I came to 1340 nM; in the data set on NCI-N87, 1 ± 0.07 nM; with SK-BR-3, 0.58 ± 0.1 nM; in the data set on HCC1954, 0.55 ± 0.19 nM; with JIMT-1, 2.32 ± 0.45 nM; with Capan-1, 0.38 ± 0.07 nM. Besides, the IC50 in the data set with AGS is 0.36 ± 0.11 nM; in the data set with MKN45 it was 0.3 ± 0.07 nM; in the data set with MDA-MB-468, 0.56 ± 0.09 nM; in the data set with nine cancer cell lines, 0.3 to 2.32 nM. The AUC(0-t) in data set [3] amounted to 113 ng·h/mL. The peak level in [3] (Cmax) was 250 ng/mL. In addition, the Vd in data set [3] was 1.81 L/kg. In data set [3], this compound displayed a clearance of 72.6 mL/min/kg. Moreover, the half-life was 0.37 h in data set [3] (mice, i.v. injection); 101 h in [4] (analyte after SHR-A1811 40 mg/kg i.v. every 3 weeks, Multiple); 107 h in [4] (analyte after SHR-A1811 40 mg/kg i.v., Single). The RacAUCINF in [4] (analyte after SHR-A1811 40 mg/kg i.v. every 3 weeks, Multiple vs single) stood at 1.07.
